According to ChEMBL document CHEMBL3351350, “Inhibition of C-terminal truncated PPM1D enhances the effect of doxorubicin on cell viability in human colorectal carcinoma cell line” (2014):
Calls of active or inactive are those of the source. The calls are words filed in the database; no cut-off is given here.

Experiments:
[1] = molecular target: T1, Protein phosphatase 1D (Homo sapiens) (UniProt O15297); assay: Inhibition of C-terminal truncated PPM1D in human HCT116 cells assessed as increase in p21 level at 40 uM after 24 to 48 hrs by western blotting in presence of doxorubicin; type: cell-based; conditions: HCT-116
T1 sequence (whole entry): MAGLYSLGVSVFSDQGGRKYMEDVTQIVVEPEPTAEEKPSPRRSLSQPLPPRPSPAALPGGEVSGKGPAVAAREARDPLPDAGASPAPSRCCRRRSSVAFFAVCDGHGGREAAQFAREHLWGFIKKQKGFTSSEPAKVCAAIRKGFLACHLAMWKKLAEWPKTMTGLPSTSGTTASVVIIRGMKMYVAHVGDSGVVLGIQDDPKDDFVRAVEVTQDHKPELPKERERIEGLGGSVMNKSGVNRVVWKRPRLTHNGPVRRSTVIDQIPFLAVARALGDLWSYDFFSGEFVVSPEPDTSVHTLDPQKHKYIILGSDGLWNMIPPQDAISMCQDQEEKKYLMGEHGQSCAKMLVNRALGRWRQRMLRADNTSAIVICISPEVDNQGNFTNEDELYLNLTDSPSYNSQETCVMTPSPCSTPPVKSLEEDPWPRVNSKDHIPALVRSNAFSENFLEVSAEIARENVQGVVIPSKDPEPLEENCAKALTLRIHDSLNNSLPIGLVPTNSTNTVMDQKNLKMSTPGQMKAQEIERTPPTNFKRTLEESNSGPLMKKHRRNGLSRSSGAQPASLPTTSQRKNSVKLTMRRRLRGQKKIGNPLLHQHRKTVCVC

[2] = Cytotoxicity against human HCT116 cells assessed as cell viability at 40 uM after 48 hrs by MTS assay in presence of doxorubicin; type: functional; conditions: HCT-116, 48 h, read-out: Activity
[3] = molecular target: T1, Protein phosphatase 1D (Homo sapiens); assay: Inhibition of C-terminal truncated PPM1D in human HCT116 cells assessed as increase in Ser15 phosphorylated p53 level at 40 uM after 24 to 48 hrs by western blotting in presence of doxorubicin; type: cell-based; conditions: HCT-116
[4] = Cytotoxicity against human HCT116 cells assessed as cell viability at 40 uM after 48 hrs by MTS assay; type: functional; conditions: HCT-116, 48 h, read-out: Activity
HCT-116 [5] = assay: Increase in C-terminal truncated PPM1D level in human HCT116 cells at 40 uM after 24 to 48 hrs by western blotting in presence of doxorubicin; type: functional, cell-based
A549 [6] = assay: Cytotoxicity against human A549 cells assessed as inhibition of cell viability after 48 hrs by MTS assay; type: functional, cell-based
A549 [7] = assay: Cytotoxicity against human A549 cells assessed as cell viability at 2 uM after 48 hrs by MTS assay; type: functional; conditions: A549, 48 h, read-out: Activity
[8] = molecular target: T1, Protein phosphatase 1D (Homo sapiens); assay: Inhibition of C-terminal truncated PPM1D in human HCT116 cells assessed as increase in p21 level at 2 uM after 24 to 48 hrs by western blotting; type: cell-based; conditions: HCT-116
[9] = Cytotoxicity against human HCT116 cells assessed as cell viability at 2 uM after 48 hrs by MTS assay; type: functional; conditions: HCT-116, 48 h, read-out: Activity
[10] = molecular target: T1, Protein phosphatase 1D (Homo sapiens); assay: Inhibition of C-terminal truncated PPM1D in human HCT116 cells assessed as increase in Ser15 phosphorylated p53 level at 2 uM after 24 to 48 hrs by western blotting; type: cell-based; conditions: HCT-116
HCT-116 [11] = assay: Cytotoxicity against human HCT116 cells assessed as inhibition of cell viability after 48 hrs by MTS assay; type: functional, cell-based

| inhibition [1] | inhibition [3] | inhibition [8] | inhibition [10] | SMILES | viability at 40 µM [2] | viability at 40 µM [4] | Activity (HCT-116 [5]) | inhibition (A549 [6]) | viability at 2 µM (A549 [7]) | viability at 2 µM [9] | inhibition (HCT-116 [11]) |
| --- | --- | --- | --- | --- | --- | --- | --- | --- | --- | --- | --- |
| Active | Active |  |  | CC[Si](CC)(CC)O[C@@H]1C[C@H](C)C[C@@H]2[C@@H]1C[C@H](O[Si](C)(C)C(C)(C)C)[C@@H]1[C@](C)(CO)C[C@H](O)C[C@@]21C | 26.3% | 94.2% | Active |  |  |  |  |
|  |  | Active | Active | COc1cccc2c1C(=O)c1c(O)c3c(c(O)c1C2=O)C[C@@](O)(C(=O)CO)C[C@@H]3O[C@H]1C[C@H](N)[C@H](O)[C@H](C)O1 [DOXORUBICIN] |  |  |  | Dose-dependent effect | 5% | 40.7% | Dose-dependent effect |
